From patent US20040242542A1, “Compositions and methods for inducing CD81 dependent antiproliferation and for treating hepatitis C and other disorders” (The Regents of the University of California, priority 2003, published 2004)

Key:
[1] = system: CD81-enriched cell lines (astrocyte) vs. CD81-deficient cell lines (C6 glioma); experiment: Antiproliferation of CD81-enriched astrocytes vs. CD81-deficient C6 glioma cells; assay type: cell-based; settings: for astrocyte-selective antiproliferation: concentration range of 0.1 to 10 μM, astrocytes relative to CD81-deficient cell lines
Source text: Further in accordance with the present invention, there are provided methods for synthesis of amantadine analogues by appending primary amines to 1-boraadamantane to evaluate such compounds for CD81 dependent antiproliferation of CD81-enriched cell lines (astrocyte) vs. CD81-deficient cell lines (C6 glioma). Specific details of the synthetic methods of the present invention as well as related data is now published in Wagner, Carl E. et al., Synthesis of-1-Boraadamantaneamine Derivatives with Selective Astrocyte vs C6 Glioma Antiproliferative Activity. A Novel Class of Anti-Hepatitis C Agents with Potential to Bind CD81, J.Med.Chem., Vol.46,2823-2833 (2003) and Wagner, Carl E., Syntheis and First Molecular Structure of a Bis-2-spiro-1boraadamantane Dirivative, Organic Letters, Vol. 6, No. 3, 313-316 (2004), copies of which are filed herewith and the entireties of which are expressly incorporated herein by reference.
The amantadine analogues of the present invention that bind to and activate CD81 may have the potential to prevent or treat HCV infections. Each compound's potential for preventive and therapeutic activity stems from the compound's potential to block viral attachment, virus-cell fusion or virus entry into host cells, or similarly counter potential mechanisms of HCV immune evasion. Out of a library of over 500 compounds including randomly selected small molecules and rationally designed small molecules, only the 1-boraadamantane amine compounds display a significant antiproliferative effect on the CD81-enriched astrocytes relative to the CD81-deficient cell lines. […] Additionally, structurally similar adamantane analogues to the active primary amine 1-boraadamantane complexes identified in this assay were synthesized for testing.
A variety of 1-boraadamatane amine complexes were synthesized by stoichiometric addition of a primary amine to 1-boraadamantane·THF. These complexes were subsequently evaluated for an antiproliferative effect on CD81-enriched cell lines to provide evidence for binding and activation of the CD81 receptor. Additional amantidine analogues structurally similar to the 1-boraadamantane amine complexes were also synthesized.

α4 β1/VCAM cell line = α4 β1/VCAM cell line (Homo sapiens, UniProt P05556+P13612); settings: reported in the literature; read-out: IC50 as antagonist for α4 β1/VCAM; cited from earlier work
α4 β1/VCAM cell line, sequence (P13612 34-1032): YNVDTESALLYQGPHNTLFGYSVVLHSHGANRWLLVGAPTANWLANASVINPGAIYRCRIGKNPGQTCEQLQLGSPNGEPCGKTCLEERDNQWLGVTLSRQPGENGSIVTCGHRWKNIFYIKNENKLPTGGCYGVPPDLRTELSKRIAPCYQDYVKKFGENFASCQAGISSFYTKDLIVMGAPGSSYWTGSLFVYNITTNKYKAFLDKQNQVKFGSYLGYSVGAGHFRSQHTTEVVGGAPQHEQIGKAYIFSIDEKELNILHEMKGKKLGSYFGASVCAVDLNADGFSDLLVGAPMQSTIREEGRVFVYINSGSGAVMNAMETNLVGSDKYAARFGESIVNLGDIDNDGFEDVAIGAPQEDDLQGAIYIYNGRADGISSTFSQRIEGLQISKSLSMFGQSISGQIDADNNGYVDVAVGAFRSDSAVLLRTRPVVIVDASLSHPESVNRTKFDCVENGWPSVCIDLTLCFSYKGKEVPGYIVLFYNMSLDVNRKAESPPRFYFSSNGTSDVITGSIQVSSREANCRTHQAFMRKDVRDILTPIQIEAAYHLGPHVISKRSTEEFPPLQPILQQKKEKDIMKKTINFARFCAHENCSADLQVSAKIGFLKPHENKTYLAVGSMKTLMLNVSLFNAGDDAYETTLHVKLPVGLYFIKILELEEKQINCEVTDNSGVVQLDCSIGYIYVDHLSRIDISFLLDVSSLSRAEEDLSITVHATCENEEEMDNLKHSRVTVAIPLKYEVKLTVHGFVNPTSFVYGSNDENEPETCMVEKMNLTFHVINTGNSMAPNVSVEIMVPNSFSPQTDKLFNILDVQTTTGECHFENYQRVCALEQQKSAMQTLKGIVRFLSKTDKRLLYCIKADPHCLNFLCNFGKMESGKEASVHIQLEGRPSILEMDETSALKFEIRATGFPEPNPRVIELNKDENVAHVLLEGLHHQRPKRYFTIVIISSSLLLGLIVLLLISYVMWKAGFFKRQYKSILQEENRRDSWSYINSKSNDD
α4 β1/VCAM cell line, sequence (P05556 21-798): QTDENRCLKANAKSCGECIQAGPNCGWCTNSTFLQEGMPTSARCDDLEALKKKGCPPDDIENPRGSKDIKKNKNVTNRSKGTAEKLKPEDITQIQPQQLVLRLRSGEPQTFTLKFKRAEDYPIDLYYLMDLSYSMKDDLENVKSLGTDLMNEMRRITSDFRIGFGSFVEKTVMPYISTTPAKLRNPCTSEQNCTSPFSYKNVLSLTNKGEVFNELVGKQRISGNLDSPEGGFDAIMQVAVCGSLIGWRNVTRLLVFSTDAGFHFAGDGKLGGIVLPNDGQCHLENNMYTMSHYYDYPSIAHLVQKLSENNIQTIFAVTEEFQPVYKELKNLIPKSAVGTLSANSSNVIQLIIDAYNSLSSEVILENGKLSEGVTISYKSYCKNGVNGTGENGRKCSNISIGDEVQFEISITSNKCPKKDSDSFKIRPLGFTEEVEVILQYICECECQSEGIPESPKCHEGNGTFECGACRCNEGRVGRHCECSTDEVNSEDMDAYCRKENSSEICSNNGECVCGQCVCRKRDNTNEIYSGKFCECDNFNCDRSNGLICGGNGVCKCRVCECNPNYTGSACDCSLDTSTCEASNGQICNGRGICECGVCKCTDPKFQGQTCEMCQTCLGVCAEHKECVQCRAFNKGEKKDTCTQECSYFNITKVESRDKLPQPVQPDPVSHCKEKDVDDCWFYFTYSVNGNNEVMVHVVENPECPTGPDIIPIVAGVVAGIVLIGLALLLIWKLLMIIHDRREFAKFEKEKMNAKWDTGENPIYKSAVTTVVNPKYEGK

Row | Compound | astrocyte-selective antiproliferation [1] | IC50 (α4 β1/VCAM cell line) [µM] | other results
1 | O=C(O)[C@H](Cc1ccccc1)NC(=O)C12CC3CC(CC(C3)C1)C2 [Complex 15] | astrocyte-selective antiproliferation | – | antiproliferative character (ranking) ([1]; 0.1 to 10 μM range of concentration): greatest antiproliferative character
2 | Cl.NC12CC3CC(CC(C3)C1)C2 [amantadine, 1-aminoadamantane hydrochloride, reference compound] | – | – | reduction of astrocyte proliferation ([1]; at high concentrations (>100 _M)): only slightly reduces astrocyte proliferation
3 | O=C(O)C(CSSCC(NC(=O)C12CC3CC(CC(C3)C1)C2)C(=O)O)NC(=O)C12CC3CC(CC(C3)C1)C2 (stereo not shown) [Compound 26] | – | 7.3 | –
4 | CC(C)C[C@H](NC(=O)C12CC3CC(CC(C3)C1)C2)C(=O)O [Complex 16] | astrocyte-selective antiproliferation | – | –
5 | 1-boraadamantane 1-aminoadamantane complex [Complex 1] | – | – | inhibiting the proliferation of the astrocyte cell line (ranking) ([1]; cell based assay, astrocyte cell line): most active compounds
6 | COC(=O)C(CSSCC(NC(=O)C12CC3CC(CC(C3)C1)C2)C(=O)OC)NC(=O)C12CC3CC(CC(C3)C1)C2 [Compound 25, N,N-diadamantylcarbonyl-L-cystine methyl ester] | – | > 800 | –
